Results taken from paper PMC4926252 (Scientific Reports, 2016).
Where two headings read alike, the source gives them in different places.

Tests used:
CtpH-LBD [1] = molecular target: T1, CtpH-LBD (Pseudomonas aeruginosa, UniProt G3XDA3); test: biochemical; type: binding; details: for binding: titrated with 5 mM ligand
PstS = PstS (Pseudomonas aeruginosa, UniProt G3XDA8); test: biochemical; type: binding; details: for ΔH: 25 °C, unfolded/refolded PstS, 10 mM Tris/HCl pH 8.0
CtpH-LBD [2] = molecular target: T1, CtpH-LBD; details: sedimentation velocity and equilibrium, with and without Pi
CtpH-LBD [3] = molecular target: T1, CtpH-LBD; details: CtpH-LBD (51 μM) saturated with 5 mM Pi
CtpL-LBD = CtpL-LBD (Pseudomonas aeruginosa, UniProt Q9HUW6); details: ITC
Experimental: E. coli BL21 (DE3) containing the expression plasmids were cultured in LB medium supplemented with 50 μg ml^−1 kanamycin at 30 °C until an OD660 of 0.6, at which point 0.1 mM IPTG was added. […] Pellets were resuspended in buffer A (30 mM Tris, 300 mM NaCl, 10 mM imidazole, 5% (v/v) glycerol, pH 7.0) and broken by French press at 1000 psi. […] Protein was diluted to 10 μM and refolded by two consecutive dialyses into 10 mM Tris/HCl, pH 8.0. Aggregated protein corresponding to misfolded species was removed by filtration using 0.22 μm cut-off filters.
The mean enthalpies from the injection of ligands into buffer were subtracted from titration data prior to analysis with the “One binding site model” of ORIGIN following the algorithm described in[51].

P. aeruginosa PAO1 [4] = test system: P. aeruginosa PAO1
P. aeruginosa PAO1 [5] = details: cited from earlier work
G3XDA3 [6] = test: AUC; sedimentation equilibrium of CtpH-LBD in the presence of Pi; 11,800, 18,100 and 31,000 rpm, 6 °C, polybuffer
G3XDA3 [7] = test: AUC; sedimentation velocity of CtpH-LBD in the presence of 500 uM Pi; 45,000 rpm, 6 °C, polybuffer
[8] = molecular target: T2, PstS (PA5369), periplasmic phosphate-binding protein, recombinant (P. aeruginosa, UniProt G3XDA8 25-323); test: AUC; sedimentation velocity, 45,000 rpm, 6 °C, polybuffer; CtpL-LBD and PstS individually and as a mixture; c(s) method; details: both partners purified
T2 construct: also called Pi-loaded PstS; source: E. coli BL21 (DE3), overexpressed, purified (HisTrap)
T2 sequence: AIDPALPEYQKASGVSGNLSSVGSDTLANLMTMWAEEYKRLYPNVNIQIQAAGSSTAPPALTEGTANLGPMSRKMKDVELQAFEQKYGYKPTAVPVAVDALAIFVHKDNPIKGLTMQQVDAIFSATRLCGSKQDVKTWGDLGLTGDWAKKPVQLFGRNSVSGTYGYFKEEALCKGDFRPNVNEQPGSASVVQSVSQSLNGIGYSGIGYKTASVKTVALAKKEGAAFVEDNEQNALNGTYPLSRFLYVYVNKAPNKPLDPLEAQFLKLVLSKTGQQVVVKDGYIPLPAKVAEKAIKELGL

[9] = molecular target: T2, PstS (PA5369), periplasmic …; test: ITC; 5 uM Pi-loaded PstS in the cell titrated with 80 uM CtpL-LBD; 25 °C; one binding site model; means of three experiments; details: both partners purified

O=CC(O)COP(=O)(O)O (racemic) [DL-glyceraldehyde 3-phosphate]
KD (CtpH-LBD [1]; pH 7): No binding

O=C(O)[C@H](O)[C@@H](O)[C@H](O)[C@H](O)COP(=O)(O)O [6-phosphogluconate]
KD (CtpH-LBD [1]; pH 7): No binding

Nc1ncnc2c1ncn2[C@@H]1O[C@H](COP(=O)(O)OP(=O)(O)O)[C@@H](O)[C@H]1O [ADP]
Kd (CtpH-LBD [1]): 103000 ± 21000 nM
ΔH (CtpH-LBD [1]; pH 7): -2.7 ± 1 kcal/mol

Nc1ncnc2c1ncn2[C@@H]1O[C@H](COP(=O)(O)O)[C@@H](O)[C@H]1O [AMP]
KD (CtpH-LBD [1]; pH 7): No binding

Nc1ncnc2c1ncn2[C@@H]1O[C@H](COP(=O)(O)OP(=O)(O)OP(=O)(O)O)[C@@H](O)[C@H]1O [ATP]
Kd (PstS): 300 ± 100 nM
ΔH (PstS; ITC): -2.9 ± 0.1 kcal/mol
KD (CtpH-LBD [1]; pH 7): Binding ^1

O=C(CO)[C@@H](O)[C@H](O)[C@H](O)COP(=O)(O)O [D-fructose 6-phosphate]
KD (CtpH-LBD [1]; pH 7): No binding

O=C[C@H](O)[C@@H](O)[C@H](O)[C@H](O)COP(=O)(O)O [D-glucose 6-phosphate]
KD (CtpH-LBD [1]; pH 7): No binding

O=P(O)(O)O [Pi, K2HPO4]
Kd (PstS): 7 ± 1 nM
ΔH (PstS; ITC): -5.1 ± 0.1 kcal/mol
binding (PstS; ITC, PstS as purified from E. coli, before unfolding/refolding): no binding
TΔS (PstS; ITC, refolded PstS): 6.0 ± 0.1 kcal/mol
n-value (PstS; ITC, refolded PstS): 0.29 ± 0.02
effect on oligomeric state of CtpH-LBD (CtpH-LBD [2]): causes CtpH-LBD dimerization
ΔH of unfolding (CtpH-LBD [3]; without Pi 28.2 kcal/mol): 39.9 + /−1.5 kcal/mol
Tm (CtpH-LBD [3]; without Pi 46.9 °C): 56.6 + /−0.2 °C
binding (CtpL-LBD; CtpL-LBD denatured, dialyzed and refolded): did not show any Pi binding
KD (CtpL-LBD; conducted at different temperatures): No binding
chemotaxis (P. aeruginosa PAO1 [4]; ctpH mutant, 0.01 mM Pi): no significant changes
chemotaxis (P. aeruginosa PAO1 [4]; ctpH mutant, 0.1 and 10 mM Pi): compromised chemotaxis
chemotaxis (P. aeruginosa PAO1 [4]; pstS deletion mutant, low Pi (0.01 and 0.1 mM)): dramatically reduced chemotaxis
chemotaxis (P. aeruginosa PAO1 [4]; pstS mutant, high Pi (10 mM)): did not greatly affect chemotaxis
chemotaxis (P. aeruginosa PAO1 [4]; pstS/ctpH double mutant): only very marginal Pi chemotaxis

O=[As](O)(O)O [arsenate]
chemotaxis (P. aeruginosa PAO1 [5]; Pi starved cells): attracted to arsenate
KD (CtpH-LBD [1]; ITC, 25 °C, polybuffer pH 7.0): No binding
binding (CtpH-LBD [1]; ITC): did not bind

O=[As][O-].[Na+] [arsenite]
KD (CtpH-LBD [1]; ITC, 25 °C, polybuffer pH 7.0): No binding
binding (CtpH-LBD [1]; ITC): did not bind

C=C(OP(=O)(O)O)C(=O)O [phosphoenolpyruvate]
KD (CtpH-LBD [1]; pH 7): No binding

O=P(O)(O)OP(=O)(O)O [pyrophosphate]
chemotaxis (P. aeruginosa PAO1 [5]; P. aeruginosa): chemotaxis towards millimolar concentrations of pyrophosphate
Kd (PstS): 2600 ± 300 nM
ΔH (PstS; ITC): -8.3 ± 0.3 kcal/mol

B1: ligand binding domain of the chemoreceptor CtpH (CtpH-LBD) (protein)
chain: GSLTGDVRAYRELLGGPVRAAQLIDEANLQFRGQVQEWKNVLLRGRQTEAQTKYWSQFEAQERAVQDILGRLGSVAEGELKDRVERLREEHRRLGTAYRQGRQRFLEAGADPIAGDQAVTGIDRATTAQMQTLRDELHQASDLHSSSISAEARRT
N with Pi (G3XDA3 [6]): 2
N with Pi (G3XDA3 [7]): dimer (39,566 Da)
N with Pi (minor species) (G3XDA3 [7]): tetramer (79,132 Da)
percent of the sedimenting material in the dimer peak, with Pi (G3XDA3 [7]): 86% of the sedimentation material

B2: ligand binding domain of the chemoreceptor CtpL (CtpL-LBD) (domain or fragment, P. aeruginosa, UniProt Q9HUW6 27-324, looked up)
chain: WSQRAMERPFQLLDQYLELSQRFDEQVARNIRQYLGSGDAVRQQAALQALESLAEALPELPPDLARTLAPSLAELREFSAGDLLAAGKLAGDPQGLLLQAERDLTGNLEQWSAYLDAAAGQPQAGAYRTPLLLASLHLTRLSLARAKLVESANPALAGDVERELANLREQAGRIEALPLLGVLDEQRSASDDFAAMMGLAGDAEAGAGNAEDRGVALRRELASLLQRYPDELRRTRDLIERRQQLSADTGARLDAVRQALATLEPQVRGERQRLQGQVRLIQGGMIALILLIALAIDS
notes: Cloned into pET28b(+); Held on a HisTrap column as bait in the pull-down; The discussion gives 286 amino acids for CtpL-LBD, whereas 27-324 is 298 residues; also called PA4844; source: E. coli BL21 (DE3), purified (HisTrap) from the soluble fraction
stoichiometry N [8]: 1
dH [9]: -3.1 kcal/mol
